Data as given in US20260206761A1, “HETEROARYL-TRIAZOLE COMPOUNDS AS PESTICIDES” (Bayer Aktiengesellschaft, priority 2019, published 2026).

Experiments:
Assay type in all cases: in vivo
[1] = test system: Rhipicephalus microplus larvae (strain Parkhurst, resistant against synthetic pyrethroids); assay: Rhipicephalus (Boophilus) microplus in-vitro contact test, larval cattle tick; conditions: after 48 hours, read-out: activity (efficacy: larvae dead or moribund); for pest or weed control at 100 g/ha: application rate 1 pg/cm^2 (=100 g/ha); for pest or weed control at 500 g/ha: application rate 5 pg/cm^2 (=500 g/ha)
Protocol: Rhipicephalus (Boophilus) microplus—In-Vitro Contact Tests Larval Cattle Tick (Strain Parkhurst. Resistant Against Synthetic Pyrethroids)
(§1) 9 mg compound is solved in 1 mL acetone and diluted with acetone to the desired concentration. 250 μL of the test solution is filled in 25 mL glass test tubes and homogeneously distributed on the inner walls by rotation and tilting on a shaking device (2 h at 30 rpm). With a compound concentration of 900 ppm, an inner surface of 44.7 cm^2 and a homogeneous distribution, a dose of 5 μg/cm^2 is achieved.
After the solvent has evaporated, each test tube is filled with 20-50 cattle tick larvae (Rhipicephalus microplus), closed with a perforated lid and incubated in a horizontal position at 85% relative humidity and 27° C. in an incubator. After 48 hours efficacy is determined. The larvae are patted on the ground of the tubes and negative geotactic behaviour is recorded.
An efficacy of 100% means all larvae are dead or moribund; 0% means no larvae are dead or moribund.

[2] = test system: adult engorged female ticks (Rhipicephalus microplus); assay: Rhipicephalus (Boophilus) microplus injection test; conditions: 168 h, egg deposition after 7 days, read-out: activity (efficacy: infertile eggs); for pest or weed control at 4 pg: application rate 4 pg/animal; for pest or weed control at 0.02 mg: application rate 20 μg/animal
Protocol: Rhipicephalus (Boophilus) microplus—Injection Test
(§2) Solvent: dimethyl sulfoxide
To produce a suitable preparation of active compound, 10 mg of active compound are dissolved in 0.5 mL solvent, and the concentrate is diluted with solvent to the desired concentration.
Five adult engorged female ticks (Rhipicephalus microplus) are injected with 1 μL compound solution into the abdomen. The ticks are transferred into replica plates and incubated in a climate chamber.
After 7 days egg deposition of fertile eggs is monitored. Eggs where fertility is not visible are stored in a climate chamber till hatching after about 42 days. An efficacy of 100% means all eggs are infertile; 0% means all eggs are fertile.

[3] = test system: adult unfed cat fleas (Ctenocephalides felis); assay: Ctenocephalides felis oral test; conditions: 48 h, read-out: activity (mortality)
Protocol: Ctenocephalides felis—Oral Test
as §2
To produce a suitable preparation of active compound, 10 mg of active compound are dissolved in 0.5 mL solvent, and the concentrate is diluted with cattle blood to the desired concentration.
Approximately 20 adult unfed cat fleas (Ctenocephalides felis) are placed in flea chambers. The blood chamber, sealed with parafilm on the bottom, are filled with cattle blood supplied with compound solution and placed on the gauze covered top of the flea chamber, so that the fleas are able to suck the blood. The blood chamber is heated to 37° C. whereas the flea chamber is kept at room temperature.
After 2 days mortality in % is determined. 100% means all the fleas have been killed; 0% means none of the fleas have been killed.

[4] = test system: fall armyworm larvae (Spodoptera frugiperda); assay: Spodoptera frugiperda spray test; conditions: 168 h, read-out: activity (mortality)
Protocol: Spodoptera frugiperda—Spray Test
Solvent: 78.0 parts by weight acetone • 1.5 parts by weight dimethylformamide
(§3) Emulsifier: alkylarylpolyglycol ether
(§4) To produce a suitable preparation of active compound, 1 part by weight of active compound is mixed with the stated amount of solvents and is diluted with water, containing an emulsifier concentration of 1000 ppm, to the desired concentration. Further test concentrations are prepared by dilution with emulsifier containing water.
Maize (Zea mays) leaf sections are sprayed with a preparation of the active ingredient of the desired concentration. Once dry, the leaf sections are infested with fall armyworm larvae (Spodoptera frugiperda).
After 7 days mortality in % is determined. 100% means all caterpillars have been killed and 0% means none of the caterpillars have been killed.

[5] = test system: larvae of the banded cucumber beetle (Diabrotica balteata); assay: Diabrotica balteata spray test; conditions: 168 h, after 7 days, read-out: activity (efficacy: seedlings grown); for pest or weed control at 100 g/ha: application rate 100 g/ha (=32 pg/well)
Protocol: Diabrotica balteata—spray test
(§5) Solvent: 78.0 parts by weight of acetone • • 1.5 parts by weight of dimethylformamide
as §3
as §4, with “solvent,” for “solvents”, “and the concentrate” for “and”
Soaked wheat seeds (Triticum aestivum) are placed in a multiple well plate filled with agar and some water and are incubated for 1 day to germinate (5 seeds per well). The germinated wheat seeds are sprayed with a test solution containing the desired concentration of the active ingredient. Afterwards each unit is infected with 10-20 larvae of the banded cucumber beetle (Diabrotica balteata).
After 7 days efficacy in % is determined. 100% means all the seedlings have grown up like in the untreated, uninfected control; 0% means none of the seedlings have grown.

[6] = test system: adult brown dog ticks (Rhipicephalus sanguineus); assay: Rhipicephalus sanguineus in-vitro contact test, adult brown dog ticks; conditions: after 48 hours, read-out: activity (efficacy: ticks dead or moribund); for pest or weed control at 100 g/ha: application rate 1 pg/cm^2 (=100 g/ha); for pest or weed control at 5 µg/cm2, 500 g/ha: application rate 5 μg/cm^2 (=500 g/ha)
Protocol: Rhipicephalus sanguineus—In-Vitro Contact Tests with Adult Brown Dog Ticks
as §1
After the solvent has evaporated, each test tube is filled with 5-10 adult brown dog ticks (Rhipicephalus sanguineus), closed with a perforated lid and incubated in a lying position at room temperature and relative humidity. After 48 hours efficacy is determined. The ticks are patted on the ground of the tubes and are incubated on a heating plate at 45-50° C. for at most 5 minutes. Immotile or uncoordinated moving ticks, which are not able to escape the heat by climbing upwards, are marked as dead or moribund.
An efficacy of 100% means all ticks are dead or moribund; 0% means no ticks are dead or moribund.

[7] = test system: green peach aphid (Myzus persicae); assay: Myzus persicae oral test; conditions: 120 h, application rate 4 ppm, after 5 days
Protocol: Solvent: 100 parts by weight acetone
To produce a suitable preparation of active compound, 1 part by weight of active compound is mixed with the stated amount of solvent, and the concentrate is diluted with water to the desired concentration.
50 μL compound solution is filled in microtiter plates and 150 μL IPL41 insect medium (33%+15% sugar) is added to obtain a total volume of 200 μL per well. Afterwards the plates are sealed with parafilm through which a mixed population of the green peach aphid (Myzus persicae) can suck on the compound preparation.
After 5 days mortality in % is determined. 100% means all aphids have been killed and 0% means none of the aphids have been killed.

[8] = test system: larvae of the southern green stink bug (Nezara viridula); assay: Nezara viridula spray test; conditions: 96 h, after 4 days; for mortality at 100 g/ha: application rate 100 g/ha; for mortality at 500 g/ha: application rate 500 g/ha
Protocol: Nezara viridula—Spray Test
as §5, §3
as §4, with “solvent,” for “solvents”, “and the concentrate” for “and”
Barley plants (Hordeum vulgare) infested with larvae of the southern green stink bug (Nezara viridula) are sprayed with a test solution containing the desired concentration of the active ingredient.
After 4 days mortality in % is determined. 100% means all the stink bugs have been killed; 0% means none of the stink bugs have been killed.

Structure (SMILES) | pest or weed control at 100 g/ha [1] [%] | pest or weed control at 500 g/ha [1] [%] | pest or weed control at 4 pg [2] [%] | pest or weed control at 0.02 mg [2] [%] | mortality at 100 ppm [3] [%] | mortality at 100 g/ha [4] [%] | mortality at 500 g/ha [4] [%] | pest or weed control at 100 g/ha [5] [%] | pest or weed control at 100 g/ha [6] [%] | pest or weed control at 5 µg/cm2, 500 g/ha [6] [%] | mortality at 4 ppm [7] [%] | mortality at 100 g/ha [8] [%] | mortality at 500 g/ha [8] [%] | pest or weed control at 500 g/ha ([5]; application rate 500 g/ha (=160 pg/well)) [%]
CCCc1nc([C@H](C)NC(=O)c2cc(Cl)cc(S(C)(=O)=O)c2)n(-c2ccc(C#N)cn2)n1 [I-2] | 100 | 100 | 100 | 100 | 100 | 83 | 100 | – | – | – | – | – | – | –
CCS(=O)(=O)c1cc(Cl)cc(C(=O)N[C@@H](C)c2nc(C3CC3)nn2-c2ccc(C#N)cn2)c1 [I-20] | 100 | 100 | 100 | 100 | 100 | 100 | – | 80 | – | – | – | – | – | –
C[C@H](NC(=O)c1cc(Cl)cc(S(=O)(=O)C(F)F)c1)c1nc(C2CC2)nn1-c1ccc(C#N)cn1 [I-27] | 100 | 100 | 100 | – | 100 | 100 | – | 100 | – | – | – | – | – | –
COc1nc([C@H](C)NC(=O)c2cc(OC(F)(F)F)cc(C3CC3)c2)n(-c2ccc(C#N)cn2)n1 [I-44] | 100 | 100 | 100 | – | – | 100 | – | 100 | 100 | 100 | 90 | – | – | –
C[C@H](NC(=O)c1cc(Cl)cc(S(C)(=O)=O)c1)c1nc(C2CC2)nn1-c1ccc(Cl)cn1 [I-58] | 100 | 100 | – | – | – | 100 | – | 100 | 100 | 80 | 100 | 100 | 100 | –
C[C@H](NC(=O)c1cc(Cl)cc(S(=O)(=O)C2CC2)c1)c1nc(C2CC2)nn1-c1ccc(Cl)cn1 [I-59] | 100 | 100 | – | – | – | 100 | – | 80 | – | – | 100 | 100 | 100 | –
C[C@H](NC(=O)c1cc(F)cc(S(C)(=O)=O)c1)c1nc(C2CC2)nn1-c1ccc(Cl)cn1 [I-60] | 100 | 100 | – | – | – | 100 | – | 100 | 100 | 100 | 100 | 100 | 100 | –
C[C@H](NC(=O)c1cc(OC(F)F)cc(S(C)(=O)=O)c1)c1nc(C2CC2)nn1-c1ccc(C#N)cn1 [I-65] | – | – | – | – | – | 100 | – | 100 | – | – | 100 | 100 | 100 | –
C[C@H](NC(=O)c1cc(OC(F)(F)F)cc(S(C)(=O)=O)c1)c1nc(C2CC2)nn1-c1ccc(Cl)cn1 [I-69] | – | – | – | – | – | 100 | – | 100 | – | – | 100 | 90 | – | –
COc1nc([C@H](C)NC(=O)c2cc(Br)cc(C3(F)CC3)c2)n(-c2ccc(C#N)cn2)n1 [I-71] | 100 | 100 | – | – | – | 100 | – | 100 | – | – | 100 | – | – | –
COc1nc([C@H](C)NC(=O)c2cc(OC(F)F)cc(C3CC3)c2)n(-c2ccc(C#N)cn2)n1 [I-74] | 100 | 100 | – | – | – | 100 | – | 80 | – | – | 100 | – | – | –
COc1nc([C@H](C)NC(=O)c2cc(OC(F)(F)F)cc(S(C)(=O)=O)c2)n(-c2ccc(C#N)cn2)n1 [I-75] | – | – | – | – | – | 100 | – | 80 | – | – | 100 | 100 | 90 | –
COc1nc([C@H](C)NC(=O)c2cc(OC(F)F)cc(C3CC3)c2)n(-c2ncc(Cl)cn2)n1 [I-76] | 100 | 100 | – | – | – | 100 | – | 100 | – | – | 100 | – | – | –
C[C@H](NC(=O)c1cc(Cl)cc(C2(C#N)CC2)c1)c1ncnn1-c1nccs1 [II-5] | – | – | 100 | 100 | 100 | – | 100 | – | – | – | – | – | – | 100
C[C@H](NC(=O)c1cc(C(F)(F)F)cc(S(C)(=O)=O)c1)c1ncnn1-c1ccc(S(C)(=O)=O)cn1 [II-56, 3-(methylsulfonyl)-N-[(1S)-1-{1-[5-(methylsulfonyl)pyridin-2-yl]-1H-1,2,4-triazol-5-yl}ethyl]-5-(trifluoromethyl)benzamide] | – | – | 100 | – | 100 | – | – | – | – | – | – | – | – | –
C[C@H](NC(=O)c1cc(OC(F)F)cc(C2CC2)c1)c1ncnn1-c1ccc(C#N)cn1 [II-62] | 100 | 100 | 100 | – | – | 100 | – | 100 | 100 | 100 | 100 | – | – | –
